Measurements reported in patent US9265739B2, “Methods and use of compounds that bind to HER2/neu receptor complex” (The Trustees Of The University Of Pennsylvania, priority 2010, dated 2016).

Legend:
T6-17 cells [1] = experiment: Soft agar colony growth screening, T6-17 cells; assay type: cell-based, murine; conditions: soft agar colonies counted on day 21, relative to DMSO control, p<0.05, FIG. 1/2
Protocol: (§1) Targeted molecules were screened in vitro for anti-tumor activity using a modified […] growth of transformed cell assay, as described in Fukazawa et al. (1995), Anal. Biochem., 10:83-90. Anchorage-independent growth capability is perhaps the best indicator of the malignant phenotype and is determined by efficiency of cells to form colonies in soft agar (Drebin, et al., Cell 41, 697-706 (1985)). All experiments were conducted in 6 cm dishes in triplicate. Agar bottom layers consisted of 3 ml 0.25% agarose/DMEM (Dulbecco's Modified Eagle Medium) supplemented with 10% FBS (Fetal Bovine Serum), 2 mM L-glutamine, and 100 u/ml Penicillin/1 μg/ml Streptomycin. About 1000-2000 cells T6-17/SK-BR-3 are layered on the top in 1 ml 0.18% agarose/DMEM, 10% FBS, 2 mM L-glutamine, and 100 μ/ml Penicillin/1 μg/ml Streptomycin. Cultures were treated every 3 days with 0.5 ml of supplemented DMEM containing measured amounts of the Her2 inhibitors, or DMSO (dimethyl sulfoxide) alone. On the day before the colonies were counted, the samples were incubated with 1 ml of Hank's Balanced Salt Solution containing 1 mg/ml p-iodonitrotetrazolium violet (INT, Sigma) to stain colonies. The next day, colonies were counted using a 7× achromatic magnifying eyepiece (Bausch and Lomb). Triplicate cultures were counted on day 21 and will be verified by at least two different persons. […]

SK-BR-3 cells = experiment: Soft agar colony growth screening, SK-BR-3 cells; assay type: cell-based; conditions: soft agar colonies counted on day 21, relative to DMSO control, p<0.05, FIG. 1/2
Protocol: as §1

T6-17 cells [2] = experiment: MTT cell proliferation assay, T6-17 cells; assay type: cell-based, murine; conditions: indicated doses, three days, FIG. 3
From the text: (§2) The activity of S22-57 in cell proliferation assays using different cell lines was examined. T6-17 is a murine cell line engineered to express human HER2/neu. […] HBL100 is an immortalized human breast cancer cell line. XHT-1-1A are mouse NIH3T3 cells transformed by Harvey-RAS (XHT-1-1a) previously developed and used (Drebin, et al., Cell 41, 697-706 (1985)). Both HBL100 and XHT-1-1A are used as controls. To measure cell proliferation, we used the modified 3-[4,5-dimethylthiazol-2-yl]-2,5-diphenyl tetrazolium bromide (MTT) assay as previously described (Masuda, et al., Oncogene 25, 7740-7746 (2006)). Cells (2000-5000 cells/well) were seeded in 96-well plates in the presence of inhibitors with different concentration and incubated at 37° C. in a humidified 5% CO2 atmosphere. After 72 h, cells were incubated in fresh medium for another 4 hours before a total of 25 μl of MTT solution (5 mg/ml in PBS) was added to each well, and after 2 h of incubation at 37° C., 100 μl of the extraction buffer (20% w/v SDS, 50% N,N-dimethyl formamide, pH 4.7) was added. After an overnight incubation at 37° C., the optical density at 570 nm was measured using a Tecan ELISA reader. […] Proliferation of cells was measured by the MTT assay.

HC1 cells = experiment: MTT cell proliferation assay, HC1 cells; assay type: cell-based, human; conditions: indicated doses, three days, FIG. 3
From the text: as §2

[3] = tested on: HER2 (phosphorylation at Y877); experiment: Inhibition of HER2 phosphorylation in HC1 cells (western blot); assay type: cell-based, human; conditions: serum-starved HC1 cells, inhibitor 1 hour, EGF 50 ng/ml 10 minutes, FIG. 4
Protocol: The effect of S22-57 was also examined in the cetuximab-resistant non-small cell lung cancer cell line HC1. Confluent HC1 cells were first serum starved for 24 hours before exposed to inhibitors as indicated for 1 hour. Cells were then stimulated by EGF (50 ng/ml) for 10 minutes. […] Both antibodies were purchased from Cell Signaling.

O=C(CCc1cc(C(F)(F)F)cc(C(F)(F)F)c1)NN/C=C1\C=C(Cl)C=C(Cl)C1=O [S22-57]
effect on T6-17 cell proliferation (colony growth in culture) (T6-17 cells [1]): reduced cellular growth in culture relative to DMSO control | effect on SK-BR-3 cell proliferation (colony growth in culture) (SK-BR-3 cells): reduced cellular growth in culture relative to DMSO control | inhibition of proliferation of T6-17 cells (T6-17 cells [2]): inhibited T6-17 and HC1 dose-dependently | inhibition of proliferation of HC1 cells (HC1 cells): inhibited T6-17 and HC1 dose-dependently | EGF-stimulated phosphorylation of HER2 at Y877 [3]: inhibited
